Key:
Mamu-B*098 = assay: Biolayer interferometry binding to β2m-linked Mamu-B*098; parameters: species or system rhesus macaque; conditions: Octet RED96; biotinylated β2m-linked Mamu-B*098; lipopeptide 10 μM, 45 min, then 30 min without; 20 mM Tris-HCl pH 7.5, 150 mM NaCl, 2% DMSO; 30 °C; representative of three independent experiments
Source text: (§1) Single-chain MHC proteins in which β2m was linked via a Gly-Ser linker (GGGGSGGSGSGGGSS) to the ectodomain of either Mamu-B*098 or Mamu-A*02, followed by a biotinylation sequence peptide (LHHILDAQKMVWNHR), were also expressed in E. coli and were purified in a similar manner to the trimer complex of Mamu-B*098, β2m and C14nef5. The β2m-linked Mamu-B*098 protein was refolded without C14nef5, whereas the β2m-linked Mamu-A*02 protein was refolded in the presence of the YY9 peptide (YTSGPGIRY). These recombinant proteins (3 mg) were biotinylated by being incubated for 12 h at 20 °C with 2 μg of BirA enzyme (Sigma-Aldrich, St Louis, MO) in a biotinylation buffer containing 100 mM Tris-HCl pH 8.0, 5 mM MgCl2, 4.5 mM ATP and 4 mM D-biotin, and were purified by size-exclusion chromatography.
(§2) The binding of ligands to MHC class I molecules was analysed using the Octet RED96 system equipped with a streptavidin-conjugated biosensor (Pall ForteBio, Menlo Park, CA) according to the manufacturer's instructions. Biotinylated β2m-linked Mamu-B*098 and Mamu-A*02 proteins were immobilized on the sensor tip surface with a signal magnitude of ∼5.0 nm. […] After reference subtraction, binding signals were analysed using the BIAevaluation 3.1 software. […]

[1] = test system: 2N5.1 (plate-coated Mamu-B*098); assay: T-cell assay with plate-coated Mamu-B*098, IFN-γ release by 2N5.1; type: cell-based, rhesus macaque; conditions: 10 μg MHC protein, 1 μg lipopeptide loaded overnight 37 °C; 5 × 10^4 T cells per well, 24 h; IFN-γ ELISA
Source text: as §1
Streptavidin-coated 96-well plates (Thermo Scientific, Hudson, NH) were overlaid with 10 μg of the biotinylated β2m-linked Mamu-B*098 and Mamu-A*02 proteins, and lipopeptide Ags (1 μg) were loaded by an overnight incubation at 37 °C. The wells were then washed extensively and T cells (5 × 10^4 per well) were added. After a 24-h incubation at 37 °C, aliquots of the culture supernatants were collected and the amount of IFN-γ released into the medium was measured by a human/monkey IFN-γ enzyme-linked immunosorbent assay kit (Mabtech, Nacka Strand, Sweden).

2N5.1 TCR = assay: SPR binding of soluble 2N5.1 TCR to peptide-loaded Mamu-A*02; parameters: species or system rhesus macaque; conditions: in words; Biacore 3000, 30 °C; soluble 2N5.1 TCR αβ dimer; YY9 peptide-loaded Mamu-A*02 immobilized; pH 7.5
Source text: as §1
TCR dimers were generated by the disulfide-linked TCR method. […]
as §2, with “instructions.” for “instructions. Biotinylated β2m-linked Mamu-B*098 and Mamu-A*02 proteins were immobilized on the sensor tip surface with a signal magnitude of ∼5.0 nm.”

Substance | physical interaction with immobilized Mamu-B*098 (biolayer interferometry) (Mamu-B*098) | IFN-γ response of 2N5.1 to plate-coated Mamu-B*098 with lipopeptide Ag [1] | interaction of 2N5.1 TCR with peptide-loaded Mamu-A*02 (SPR) (2N5.1 TCR)
C14-GGAAS | bound to B*098 | failed to stimulate 2N5.1 even in the presence of Mamu-B*098 | –
YTSGPGIRY [YY9, YY9 peptide (…)] | – | – | no interaction was detected
